# Data: patent US20080241281A1, “Compositions & methods for activation and inhibition of Staphylococcus aureus biofilm development” (priority 2007, published 2008)
# How the values were obtained:
# [1] = test system: poly N-acetylglucosamine (PNAG); experiment: PNAG western blot of S. aureus biofilm cells (anti-PNAG rabbit polyclonal antibody); format: cell-based, Staphylococcus aureus; settings: for PNAG synthesis in the presence of activator: LBBI-1 and LBBA-1 incubated together during biofilm growth
# [2] = test system: S. aureus (NCTC-8325-4) biofilm; experiment: S. aureus biofilm assay (microtiter wells, crystal violet stain, OD590); format: cell-based, Staphylococcus aureus
# Protocol: In the S. aureus biofilm assay, polystyrene microtiter wells and glass tubes well known in the art were used to develop biofilm in vitro. Fractions dissolved in water were added to a sterile tryptic soy broth (TSB, Difco, Detroit) medium at a final concentration between 0.001-0.01% (w/v). Biofilm was developed and measured according to methods well known in the art. Briefly, a single colony of S. aureus (NCTC-8325-4) (or a clinical isolate) grown on blood agar plate was inoculated into the TSB liquid medium and grown in a shaking water bath at 37° C. until it reached an optical density (OD600) of 0.6-0.8. An aliquot was further diluted in TSB to an OD of 0.05 and 0.1 ml was dispensed into sterile microtiter wells. Solubilized SSF were added to the wells (1 μl/ml from 0.1% of filter sterile stock in water). Cells without SSF served as a control. The microtiter plate was incubated at 37° C. with gentle shaking for up to 16 hours.
# (§1) At different time points, cells were collected and assayed for biofilm growth. Unbound cells were aspirated and saved for measuring the growth at OD600 and cell viability on agar plates. Loosely bound cells were removed by washing with phosphate buffer saline (PBS) twice and adherent biofilm cells were stained with 1% crystal violet (CV) stain. After extensive washing, stained cells were air dried, solubilized in dimethylsulfoxide (DMSO) and lysates (100 μl) were measured by a plate reader at OD590.
# [3] = test system: rat chorda tympani nerve; settings: glucose, sucrose, glycine and saccharine; known in the art; cited from earlier work
# [4] = test system: S. aureus; experiment: S. aureus growth (OD600) and cell viability on agar plates; format: cell-based, Staphylococcus aureus; settings: growth in TSB with or without substance
# Protocol: as §1
# [5] = test system: sweet taste; settings: cited from earlier work
# [6] = test system: several cell lines (human)
substance,measurement,setting,value
gurmarin [LBBI-1],PNAG synthesis in the presence of activator,[1],almost abolished
same,PNAG synthesis in the presence of activator,[1]; listed as biofilm inhibitor,suppresses the production of PNAG
same,PNAG production,"[1]; western blot, S. aureus biofilm",significantly less PNAG production
same,biofilm inhibitory property,"[2]; 2 μg/ml concentration, microtiter biofilm assay",confirmed
same,S. aureus biofilm growth,[2]; FIG. 3B,prevents S. aureus biofilm growth
same,biofilm production in the presence of LBBA-1,[2]; in the presence of LBBA-1,can inhibit biofilm production
same,response of the rat chorda tympani nerve to sweet-taste stimuli,[3],suppress the response
same,S. aureus cell growth and viability,[4],did not affect the growth of S. aureus
same,sweet taste suppression in humans,[5],no apparent effect
same,toxicity to cell lines,[6],non-toxic
